“And” between values parts separate entries of the source, which are not always exact repeats. Equal entries are not always repeated. Where two headings read alike, the source gives them in different places.
Columns and labels:
L1 C. briggsae (AF16) = assay: Liquid development and viability assay, C. briggsae; type: cell-based, Caenorhabditis briggsae; conditions: liquid growth and development assay, 1 = like DMSO control, 0 = death
Source text: (§1) Supplementary Figure 9. Class A, B, and C benzimidazoles inhibit complex I of several Clade V nematode species in vitro. […]
(§2) against the in vitro complex I activity from C. elegans, C. briggsae, P. pacificus, and P. hermaphrodita […]
(§3) L1 C. elegans (N2), C. briggsae (AF16), and P. pacificus (PS312) in a nematode liquid growth and development assay. The colour-coded scale denotes the viability of nematodes following drug treatment relative to DMSO controls; white/pale-yellow indicates nematode growth and viability similar to DMSO controls and red indicates nematode death and arrested development. Data are the mean of at least three biological replicates. Due to seemingly poor growth in liquid culture, P. hermaphrodita was not tested in the liquid viability and development assay.
(§4) Supplementary Figure 9 (continued). Davie et al.

L1 P. pacificus (PS312) = assay: Liquid development and viability assay, P. pacificus; type: cell-based, Pristionchus pacificus; conditions: liquid growth and development assay, 1 = like DMSO control, 0 = death
Source text: as §1, §2, §3, §4

L1 wild-type C. elegans = assay: 15-hour motility assay with drug alone (no KCN); type: cell-based, Caenorhabditis elegans
[1] = system: C. elegans ben-1 mutant strains ECA882, ECA917, ECA1075, ECA1080, CB3474; type: cell-based, Caenorhabditis elegans; conditions: score 0-1 relative to DMSO, values >1 set to 1
H. polygyrus = conditions: cited from earlier work
[2] = 15 hour drug alone (without KCN) treatment, dose 0.1 µM, Mean of replicates
[3] = 15 hour drug alone (without KCN) treatment, dose 0.1 µM, individual replicates
[4] = 15 hour drug alone (without KCN) treatment, dose 0.2 µM, Mean of replicates
[5] = 15 hour drug alone (without KCN) treatment, dose 0.2 µM, individual replicates
[6] = 15 hour drug alone (without KCN) treatment, dose 0.4 µM, Mean of replicates
[7] = 15 hour drug alone (without KCN) treatment, dose 0.4 µM, individual replicates
[8] = 15 hour drug alone (without KCN) treatment, dose 0.8 µM, Mean of replicates
[9] = 15 hour drug alone (without KCN) treatment, dose 0.8 µM, individual replicates
[10] = 15 hour drug alone (without KCN) treatment, dose 3.1 µM, Mean of replicates
[11] = 15 hour drug alone (without KCN) treatment, dose 3.1 µM, individual replicates
[12] = 15 hour drug alone (without KCN) treatment, dose 6.3 µM, Mean of replicates
[13] = 15 hour drug alone (without KCN) treatment, dose 6.3 µM, individual replicates
[14] = 15 hour drug alone (without KCN) treatment, dose 12.5 µM, Mean of replicates
[15] = 15 hour drug alone (without KCN) treatment, dose 12.5 µM, individual replicates
[16] = 15 hour drug alone (without KCN) treatment, dose 25 µM, Mean of replicates
[17] = 15 hour drug alone (without KCN) treatment, dose 25 µM, individual replicates
[18] = 15 hour drug alone (without KCN) treatment, dose 50 µM, Mean of replicates
[19] = 15 hour drug alone (without KCN) treatment, dose 50 µM, individual replicates
[20] = 15 hour drug alone (without KCN) treatment, dose 100 µM, Mean of replicates
[21] = 15 hour drug alone (without KCN) treatment, dose 100 µM, individual replicates

SMILES	Value relative to DMSO control, drug alone (without KCN) (L1 wild-type C. elegans; [2])	Value relative to DMSO control, drug alone (without KCN) (L1 wild-type C. elegans; [3])	Value relative to DMSO control, drug alone (without KCN) (L1 wild-type C. elegans; [4])	Value relative to DMSO control, drug alone (without KCN) (L1 wild-type C. elegans; [5])	Value relative to DMSO control, drug alone (without KCN) (L1 wild-type C. elegans; [6])	Value relative to DMSO control, drug alone (without KCN) (L1 wild-type C. elegans; [7])	Value relative to DMSO control, drug alone (without KCN) (L1 wild-type C. elegans; [8])	Value relative to DMSO control, drug alone (without KCN) (L1 wild-type C. elegans; [9])	Value relative to DMSO control, drug alone (without KCN) (L1 wild-type C. elegans; [10])	Value relative to DMSO control, drug alone (without KCN) (L1 wild-type C. elegans; [11])	Value relative to DMSO control, drug alone (without KCN) (L1 wild-type C. elegans; [12])	Value relative to DMSO control, drug alone (without KCN) (L1 wild-type C. elegans; [13])	Value relative to DMSO control, drug alone (without KCN) (L1 wild-type C. elegans; [14])	Value relative to DMSO control, drug alone (without KCN) (L1 wild-type C. elegans; [15])	Value relative to DMSO control, drug alone (without KCN) (L1 wild-type C. elegans; [16])	Value relative to DMSO control, drug alone (without KCN) (L1 wild-type C. elegans; [17])	Value relative to DMSO control, drug alone (without KCN) (L1 wild-type C. elegans; [18])	Value relative to DMSO control, drug alone (without KCN) (L1 wild-type C. elegans; [19])	Value relative to DMSO control, drug alone (without KCN) (L1 wild-type C. elegans; [20])	Value relative to DMSO control, drug alone (without KCN) (L1 wild-type C. elegans; [21])	other results
Cc1nc2ccccc2n1Cc1ccc(Cl)cc1 [STK697993]	–	–	–	–	–	–	–	–	–	–	–	–	–	–	–	–	–	–	–	–	viability score (0-1) relative to DMSO controls (L1 C. briggsae (AF16); 2 µM): 1.000; viability score (0-1) relative to DMSO controls (L1 C. briggsae (AF16); 3.9 µM): 1.000; viability score (0-1) relative to DMSO controls (L1 C. briggsae (AF16); 15.6 µM): 1.000; viability score (0-1) relative to DMSO controls (L1 C. briggsae (AF16); 31.3 µM): 0.341; viability score (0-1) relative to DMSO controls (L1 C. briggsae (AF16); 62.5 µM): 0.009; viability score (0-1) relative to DMSO controls (L1 C. briggsae (AF16); 125 µM): 0.017; viability score (0-1) relative to DMSO controls (L1 C. briggsae (AF16); 250 µM): 0.008; viability score (0-1) relative to DMSO controls (L1 P. pacificus (PS312); 2 µM): 1.000; viability score (0-1) relative to DMSO controls (L1 P. pacificus (PS312); 3.9 µM): 1.000; viability score (0-1) relative to DMSO controls (L1 P. pacificus (PS312); 15.6 µM): 0.943; viability score (0-1) relative to DMSO controls (L1 P. pacificus (PS312); 31.3 µM): 0.0076; viability score (0-1) relative to DMSO controls (L1 P. pacificus (PS312); 62.5 µM): 0.000; viability score (0-1) relative to DMSO controls (L1 P. pacificus (PS312); 125 µM): 0.007; viability score (0-1) relative to DMSO controls (L1 P. pacificus (PS312); 250 µM): 0.026
O=C(NCCc1ccc(Cl)cc1)c1ccccc1C(F)(F)F [Wact-11]	1.053	0.994 and 1.015 and 1.070 and 1.131	1.080	0.940 and 1.013 and 1.214 and 1.154	1.046	0.988 and 1.230 and 1.034	1.007	0.912 and 0.907 and 0.949 and 1.257	0.983	0.954 and 0.915 and 1.162 and 0.901	0.923	0.914 and 0.918 and 0.975 and 0.884	0.780	0.693 and 0.662 and 1.090 and 0.677	0.783	0.523 and 0.436 and 0.991 and 1.184	0.600	0.549 and 0.392 and 0.803 and 0.657	0.425	0.232 and 0.150 and 0.884 and 0.433	Value relative to DMSO control, drug alone (without KCN) (L1 wild-type C. elegans): 0.932
c1ccc2[nH]c(-c3cscn3)nc2c1 [Thiabendazole]	–	–	–	–	–	–	–	–	–	–	–	–	–	–	–	–	–	–	–	–	C. elegans L1 relative motility, 3-hour post 200 µM KCN dilution [1]: 1.000
Cc1cc(O)c2c(c1)O[C@@]1(C)CC[C@H]3C(C)(C)CCC[C@]34CO[C@@H]2[C@H]41 [Siccanin]	1.015	1.185 and 1.067 and 1.014 and 0.891 and 0.918	1.093	1.232 and 1.040 and 1.048 and 0.936 and 1.206	1.048	1.109 and 1.211 and 1.036 and 0.917 and 0.964	1.013	1.207 and 1.062 and 0.959 and 0.891 and 0.945	1.008	1.037 and 1.098 and 0.979 and 0.904 and 1.020	0.898	0.890 and 0.970 and 0.950 and 0.655 and 1.026	0.790	1.073 and 0.897 and 0.844 and 0.477 and 0.657	0.737	0.991 and 0.757 and 0.575 and 0.705 and 0.658	0.668	0.587 and 0.826 and 0.603 and 0.513 and 0.810	0.433	0.545 and 0.463 and 0.295 and 0.375 and 0.488	–
COC(=O)Nc1nc2ccc(C(=O)c3ccccc3)cc2[nH]1 [mebendazole, reference compound]	–	–	–	–	–	–	–	–	–	–	–	–	–	–	–	–	–	–	–	–	reduction in worm burden, H. polygyrus murine model (H. polygyrus; single 300 mg/kg dose): 63.5%; C. elegans L1 relative motility, 3-hour post 200 µM KCN dilution [1]: 1.000
COC(=O)Nc1nc2ccc(Sc3ccccc3)cc2[nH]1 [fenbendazole, reference compound]	–	–	–	–	–	–	–	–	–	–	–	–	–	–	–	–	–	–	–	–	reduction in H. polygyrus worm burden (H. polygyrus; single dose 100 mg/kg, mice): 90%
